One assay deals with purified human ChoKα1 (Homo sapiens, UniProt P35790). In words: Determination of human choline kinase α1 activity ([methyl-14C]choline incorporation into phosphocholine). The assay is classed as biochemical. The settings on record: mean ± SEM, three independent experiments; read-out: IC50 ChoKα1 purified.
In assay [1] the test system is Jurkat cells. In words: Cell-cycle distribution analysis (PI, flow cytometry). The assay is classed as cell-based, human. Here is the method: (§1) For flow-cytometric analysis of the DNA content, 5 × 10^5 HeLa or Jurkat cells in exponential growth were treated with different concentrations of the test compounds for 24 and 48 h. After the incubation period, the cells were collected, centrifuged, and fixed with ice-cold ethanol (70%). The cells were then treated with lysis buffer containing RNAse A and 0.1% Triton X-100, and then stained with propidium iodide (PI). Samples were analyzed in a Cytomics FC500 flow cytometer (Beckman Coulter). DNA histograms were analyzed using MultiCycle for Windows (Phoenix Flow Systems).
(In general: A flow cytometer gives signals particle by particle.)

Assay [2] has as its system MDA-MB-231 cells. The assay is described as above. The assay is classed as cell-based, human. Here is the method:
[The source words this procedure for another cell line and reports this cell line under the same test.] as §1

The test system of assay [3] is MCF-7 cells. The assay is described as above. The assay is classed as cell-based, human. The protocol: [The source words this procedure for another cell line and reports this cell line under the same test.] as §1
In assay [4] the test system is Jurkat cells. In words: Trypan blue exclusion assay. The format is cell-based, human. Here is the method:
Human T-cell leukemia (Jurkat), human B-cell leukemia (RS 4,11) and human promyelocytic leukemia (HL-60) cells were grown in RPMI-1640 medium (Gibco, Milan, Italy). Breast adenocarcinoma (MCF-7 and MDA-MB-231), human non-small cell lung carcinoma (A549), human cervix carcinoma (HeLa), human prostate adenocarcinoma (PC-3), and human colon adenocarcinoma (HT-29) cells were grown in DMEM medium (Gibco, Milan, Italy). […] Stock solutions (10 mM) of the different compounds were obtained by dissolving them in DMSO. Individual wells of 96-well tissue-culture microtiter plates were inoculated with 100 μL of complete medium containing 8 × 10^3 cells. The plates were incubated at 37 °C in a humidified 5% CO2 incubator for 18 h prior to the experiments. […] In additional experiments, cell viability was also determined by calculating the values of trypan blue positive cells (dead cells) and trypan blue negative (live cells) from a mixture of the cell suspension and 0.4% trypan blue solution. page 7: S-7 0 24 48 72 0.0 2.0x10 5 4.0x10 5 6.0x10^5 Cells/ml Time ([…] Figure S5 […] washed, counted, and incubated in a drug-free medium. After a further 72 h of incubation, cell viability was analyzed by trypan blue exclusion assay as described in the experimental section. (1 picture or pasted object on this page, not shown here)

In the next assay the test system is HUVEC. In words: Antiproliferative assay in non-tumoral cells. The settings on record: Homo sapiens, mean ± SEM. The format is cell-based. The protocol:
Human Umbilical Vein Endothelial cells (HUVEC), were prepared from human umbilical-cord veins, as previously described. The adherent cells were maintained in M200 medium added by LSGS (low serum growth supplement), containing FBS, hydrocortisone, hEGF, bFGF, heparin, gentamycin/amphotericin (Life Technologies, Monza, Italy). Once confluent, the cells were detached by trypsin–EDTA solution and used in experiments from the first to sixth passages.

The test system of assay [5] is Jurkat cells. In words: Antiproliferative MTT assay. The assay is classed as cell-based. The settings on record: Homo sapiens, 72 h, mean ± SEM. The method, boiled down:
(§2)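 Human tumour cells (8 × 10^3/well) were pre-incubated 18 h, then exposed to test compound at different concentrations for 72 h at 37 °C, 5% CO2. Leukaemia lines grew in RPMI-1640, solid-tumour lines in DMEM, both with 10% FBS; DMSO stayed ≤0.25%.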

The subject of another assay is RS4,11 cells. In words: Antiproliferative MTT assay. The format is cell-based. The settings on record: Homo sapiens, 72 h, mean ± SEM. The method, boiled down: as §2
(Tetrazolium dyes change colour on reduction, which living cells bring about.)

The subject of another assay is HL-60 cells. In words: Antiproliferative MTT assay. The assay is classed as cell-based. The settings on record: Homo sapiens, 72 h, mean ± SEM. The method, boiled down:
as §2

In another assay the test system is HeLa cells. In words: Antiproliferative MTT assay. The format is cell-based. To be noted: Homo sapiens, 72 h, mean ± SEM. The method, boiled down:
as §2

A further assay has as its system HT-29 cells. In words: Antiproliferative MTT assay. The assay is classed as cell-based. The settings on record: Homo sapiens, 72 h, mean ± SEM. The method, boiled down: as §2
Another assay concerns PC-3 cells. In words: Antiproliferative MTT assay. The format is cell-based. The settings on record: Homo sapiens, 72 h, mean ± SEM. The method, boiled down:
as §2

The subject of assay [6] is MDA-MB-231 cells. In words: Antiproliferative MTT assay. The format is cell-based. The settings on record: Homo sapiens, 72 h, mean ± SEM. The method, boiled down: as §2
The next assay relates to A549 cells. In words: Antiproliferative MTT assay. The assay is classed as cell-based. The settings on record: Homo sapiens, 72 h, mean ± SEM. The method, boiled down:
as §2

Assay [7] deals with MCF-7 cells. In words: Antiproliferative MTT assay. To be noted: Homo sapiens, MCF7, 72 h, mean ± SEM. The format is cell-based. The method, boiled down: as §2
The subject of assay [8] is panel of nine different human tumor-cell lines. In words: Antiproliferative activity against the panel of nine human tumor-cell lines. The format is cell-based. To be noted: Homo sapiens; range or bound over all tested cell lines; read-out: GI50 across the tumor-cell line panel. Here is the method: Human T-cell leukemia (Jurkat), human B-cell leukemia (RS 4,11) and human promyelocytic leukemia (HL-60) cells were grown in RPMI-1640 medium (Gibco, Milan, Italy). Breast adenocarcinoma (MCF-7 and MDA-MB-231), human non-small cell lung carcinoma (A549), human cervix carcinoma (HeLa), human prostate adenocarcinoma (PC-3), and human colon adenocarcinoma (HT-29) cells were grown in DMEM medium (Gibco, Milan, Italy). Both media were supplemented with 115 units/mL of penicillin G (Gibco, Milan, Italy), 115 μg/mL of streptomycin (Invitrogen, Milan, Italy) and 10% fetal bovine serum (Invitrogen, Milan, Italy). Stock solutions (10 mM) of the different compounds were obtained by dissolving them in DMSO. Individual wells of 96-well tissue-culture microtiter plates were inoculated with 100 μL of complete medium containing 8 × 10^3 cells. The plates were incubated at 37 °C in a humidified 5% CO2 incubator for 18 h prior to the experiments. After medium removal, 100 μL of fresh medium containing the test compound at different concentrations was added to each well and incubated at 37 °C for 72 h. The percentage of DMSO in the medium in no case exceeded 0.25%.

Another assay concerns PBL (resting). In words: Antiproliferative assay in non-tumoral cells (MTT). The format is cell-based. The settings on record: Homo sapiens, 72 h, mean ± SEM. The method, boiled down:
(§3)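 Healthy-donor PBMC from density gradient, non-adherent cells at 5 × 10^5 cells/mL in RPMI-1640/10% FBS; proliferating cultures stimulated with 2.5 μg/mL PHA, resting cultures unstimulated. Compounds at different concentrations for 72 h; viability by MTT.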

The next assay has as its system PBL (+Pha). In words: Antiproliferative assay in non-tumoral cells (MTT). The format is cell-based. To be noted: Homo sapiens, non-tumoral cells stimulated with phytohematoagglutinin, 72 h, mean ± SEM. The method, boiled down: as §3

SMILES strings stand for the structures.

purified human ChoKα1, sequence (P35790 whole entry): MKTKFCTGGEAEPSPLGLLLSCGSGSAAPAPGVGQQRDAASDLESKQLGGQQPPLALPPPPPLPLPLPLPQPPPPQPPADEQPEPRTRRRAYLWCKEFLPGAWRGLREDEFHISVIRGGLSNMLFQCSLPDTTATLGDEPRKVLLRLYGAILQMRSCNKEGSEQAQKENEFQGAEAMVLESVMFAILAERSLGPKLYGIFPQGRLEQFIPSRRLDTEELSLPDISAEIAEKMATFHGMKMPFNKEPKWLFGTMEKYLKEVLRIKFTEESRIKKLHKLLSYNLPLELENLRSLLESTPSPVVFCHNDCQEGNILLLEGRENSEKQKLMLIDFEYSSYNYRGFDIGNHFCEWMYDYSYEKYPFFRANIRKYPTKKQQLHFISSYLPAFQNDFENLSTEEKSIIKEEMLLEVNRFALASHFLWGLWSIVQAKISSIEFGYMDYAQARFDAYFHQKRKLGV
Experimental for purified human ChoKα1: The effect of the different inhibitors on human choline kinase (ChoK) was assayed in ChoKα1 purified as previously described[32]. In each experiment DMSO-assays were always run in parallel as a control. DMSO in no case exceeded a concentration of 0.1% in order to avoid unspecific ChoK inhibition. ChoK activity was assayed by measuring the rate of incorporation of ^14C from [methyl-^14C]choline into phosphocholine both in the presence or absence of different inhibitor concentrations. Briefly, the final reaction mixture contained 100 mM Tris (pH 8.5), 10 mM MgCl2, and 10 mM ATP, and 20 ng of purified ChoKα1. […] The assay was stopped by immersing the reaction tubes in boiling water for 3 min. Aliquots of the reaction mixture were applied to the origin of Silica Gel plates in the presence of phosphocholine (0.1 mg) and choline (0.1 mg) as carriers. The chromatography was developed in methanol/0.6% NaCl/28% NH4OH in water (50:50:5, v/v/v) as solvent. Phosphocholine was visualized under exposure to iodine vapor and the corresponding spot was scraped and transferred to scintillation vials for measurement of radioactivity by a Beckman 6000-TA (Madrid, Spain) liquid-scintillation counter. At least three experiments were performed in all assays.

A word on the IC50: it is the concentration at which inhibition is half-maximal. The GI50 is the concentration that inhibits growth by half. For `CN(C)c1cc[n+](Cc2ccc(OCCOc3ccc(C[n+]4ccc(N(C)C)cc4)cc3)cc2)cc1.[Br-].[Br-]` [Compound 10a, 1,1′-(((ethane-1,2-diylbis(oxy))bis(4,1-phenylene))bis(methylene))bis(4-(dimethylamino)pyridinium) bromide], the IC50 at purified human ChoKα1 was determined as 1 ± 0.01 µM. In addition, the “Cells with hypodiploid DNA content (apoptotic cells by cell-cycle analysis)” value with Jurkat cells [1], with MDA-MB-231 cells [2] (MDA-MB-231) and with MCF-7 cells [3] (MCF-7) was “not detected” throughout. The “Cell-cycle effect (G1 phase)” value is recorded as “induced a G1 arrest of the cell cycle” in the assay on Jurkat cells [1] (24 h, concentration-dependent); “induced a G1 arrest of the cell cycle” with MDA-MB-231 cells [2] (MDA-MB-231, 24 h, concentration-dependent); “induced a G1 arrest of the cell cycle” in the assay with MCF-7 cells [3] (MCF-7, 24 h, concentration-dependent). Besides, the “Proliferation after washout of compound” value in the assay with Jurkat cells [4] (72 h treatment, washed, further 72 h in drug-free medium) was “proliferation continued to be inhibited”. The “Cell growth by trypan blue count” value in the assay on Jurkat cells [4] (concentration-dependent) is listed as “significantly inhibited cell growth”. The 50% growth inhibitory concentration (GI50) worked out at 5.1 ± 0.43 µM in the assay on HUVEC; 0.12 ± 0.08 µM in the assay on Jurkat cells [5]; 0.045 ± 0.005 µM with RS4,11 cells; 0.1 ± 0.04 µM in the assay with HL-60 cells; 0.079 ± 0.024 µM in the assay on HeLa cells; 0.11 ± 0.01 µM in the assay on HT-29 cells. Besides, the GI50 is 0.051 ± 0.01 µM in the assay with PC-3 cells; 0.1 ± 0.05 µM with MDA-MB-231 cells [6]; 0.027 ± 0.01 µM in the assay with A549 cells; 0.092 ± 0.019 µM in the assay with MCF-7 cells [7]; 0.027 to 0.12 µM in [8]; 1.5 ± 0.64 µM in the assay on PBL (resting). Moreover, the GI50 in the assay on PBL (+Pha) is 0.034 ± 0.007 µM.

The record behind these values is article PMC4814829, “Design, synthesis, crystallization and biological evaluation of new symmetrical biscationic compounds as selective inhibitors of human Choline Kinase α1 (ChoKα1)” (Scientific Reports, 2016).
